Measured values: PubChem BioAssay AID316 (DTP/NCI, 2004)
Where “and” joins values, the source holds several entries; their conditions need not be identical. Identical values can stand only once. Toxic doses and inconclusive results are not listed.

Tested on: P1534 leukemia ip, CD2F1 mice, survival T/C
Assay: NCI In Vivo Anticancer Drug Screen. Data for tumor model P1534 Leukemia (intraperitoneal) in CD2F1 (CDF1) mice
Conditions: endpoint: mean survival time, higher = longer survival
Method: The antitumor activity of compounds was measured in mice bearing transplantable tumors. Survival or tumor size were measured and the results are expressed as the measurement made in the treated group (T) divided by the measurement made in the vehicle treated control group (C). The tumor model used in this assay is P1534 Leukemia (intraperitoneal) in CD2F1 (CDF1) mice

[1] = dose: 270.0 mg/kg/injection, schedule: Q01DX010 (ip), vehicle: water
[2] = dose: 400.0 mg/kg/injection, schedule: Q01DX010 (ip), vehicle: water
[3] = dose: 25.0 mg/kg/injection, schedule: Q01DX010 (ip), vehicle: saline
[4] = dose: 50.0 mg/kg/injection, schedule: Q01DX010 (ip), vehicle: saline
[5] = dose: 100.0 mg/kg/injection, schedule: Q01DX010 (ip), vehicle: saline
[6] = dose: 100.0 mg/kg/injection, schedule: Q01DX010 (ip), vehicle: water
[7] = dose: 150.0 mg/kg/injection, schedule: Q01DX010 (ip), vehicle: water
[8] = dose: 200.0 mg/kg/injection, schedule: Q01DX010 (ip), vehicle: saline
[9] = dose: 200.0 mg/kg/injection, schedule: Q01DX010 (ip), vehicle: water
[10] = dose: 20.0 mg/kg/injection, schedule: Q01DX010 (ip), vehicle: saline
[11] = dose: 40.0 mg/kg/injection, schedule: Q01DX010 (ip), vehicle: saline
[12] = dose: 62.5 mg/kg/injection, schedule: Q01DX010 (ip), vehicle: saline
[13] = dose: 125.0 mg/kg/injection, schedule: Q01DX010 (ip), vehicle: saline
[14] = dose: 250.0 mg/kg/injection, schedule: Q01DX010 (ip), vehicle: saline
[15] = dose: 500.0 mg/kg/injection, schedule: Q01DX010 (ip), vehicle: saline
[16] = dose: 400.0 mg/kg/injection, schedule: Q01DX010 (ip), vehicle: saline
[17] = dose: 6.25 mg/kg/injection, schedule: Q01DX010 (ip), vehicle: saline
[18] = dose: 12.5 mg/kg/injection, schedule: Q01DX010 (ip), vehicle: saline
[19] = dose: 80.0 mg/kg/injection, schedule: Q01DX010 (ip), vehicle: saline
[20] = dose: 600.0 mg/kg/injection, schedule: Q01DX010 (ip), vehicle: water
[21] = dose: 300.0 mg/kg/injection, schedule: Q01DX010 (ip), vehicle: water

O=C(NO)c1ccc([N+](=O)[O-])cc1 was tested, and the T/C [1] was 108 % of control and the T/C [2] was 112 % of control.
In the case of COc1cc2c(cc1Oc1c(Oc3c(O)c(OC)cc4c3C(CC(C)C)N(C)CC4)c(OC)cc3c1C(CC(C)C)N(C)CC3)C(CC(C)C)N(C)CC2 (stereo not given), the T/C [3] is reported as 107 % of control, the T/C [4] is reported as 115 % of control and the T/C [5] is reported as 111 % of control.
For NC1=NNC(=O)C1, the T/C [6] was 95 % of control and the T/C [7] was 95 % of control.
For O=c1[nH]cnc2ccccc12, the T/C [3] was 107 % of control, the T/C [4] was 100 % of control and the T/C [5] was 103 % of control. The T/C [8] was 114 % of control.
CC(/C=N/N=C(N)N)=N\NC(N)=S was tested, and the T/C [4] was 100 % of control, the T/C [5] was 100 % of control and the T/C [8] was 100 % of control.
CCC12CCCN3CCc4c(n(c5ccccc45)C(O)(C(=O)OC)C1)C32 (stereo not given) was tested, and the T/C (dose: 1.88 mg/kg/injection, schedule: Q01DX010 (ip), vehicle: saline) was 90 % of control, the T/C (dose: 3.75 mg/kg/injection, schedule: Q01DX010 (ip), vehicle: saline) was 93 % of control and the T/C (dose: 7.5 mg/kg/injection, schedule: Q01DX010 (ip), vehicle: saline) was 96 % of control.
Cc1cc(C)n(C(N)=O)n1 was tested, and the T/C [7] was 96 % of control and the T/C [9] was 111 % of control.
CN1CCN(CCCN2c3ccccc3Sc3ccc(C(F)(F)F)cc32)CC1 was tested, and the T/C [10] was 107 % of control and the T/C [11] was 115 % of control.
For O=c1cn[nH]c(=O)[nH]1, the T/C [12] was 94 % of control and 100 % of control, the T/C [13] was 100 % of control and the T/C [14] was 94 % of control and 100 % of control. For the same compound, the T/C [15] was 105 % of control and 111 % of control.
In the case of N#Cc1cn(C2OC(CO)C(O)C2O)c2ncnc(N)c12 (stereo not given), the T/C (dose: 16.0 micrograms/kg/injection, schedule: Q01DX010 (ip), vehicle: saline) is reported as 107 % of control, the T/C (dose: 32.0 micrograms/kg/injection, schedule: Q01DX010 (ip), vehicle: saline) is reported as 100 % of control and the T/C (dose: 63.0 micrograms/kg/injection, schedule: Q01DX010 (ip), vehicle: saline) is reported as 107 % of control.
For CCC(=O)O[C@H]1CC[C@H]2[C@@H]3CCC4=CC(=O)CC[C@]4(C)[C@H]3CC[C@]12C, the T/C (dose: 62.5 mg/kg/injection, schedule: Q01DX010 (sc), vehicle: steriod suspending solution) was 96 % of control, the T/C (dose: 125.0 mg/kg/injection, schedule: Q01DX010 (sc), vehicle: steriod suspending solution) was 100 % of control and the T/C (dose: 250.0 mg/kg/injection, schedule: Q01DX010 (sc), vehicle: steriod suspending solution) was 100 % of control. For the same compound, the T/C (dose: 500.0 mg/kg/injection, schedule: Q01DX010 (sc), vehicle: steriod suspending solution) was 100 % of control.
With CC(O)CCc1ccc(OC(=O)c2ccccc2)cc1 (stereo not given) the T/C [4] was 89 % of control, the T/C [5] was 93 % of control and the T/C [8] was 89 % of control. The T/C [16] was 93 % of control.
With CN(C)/N=N/c1nc[nH]c1C(N)=O the T/C [17] was 100 % of control, the T/C [18] was 107 % of control and the T/C [3] was 103 % of control. The T/C [4] was 107 % of control.
For COC(=O)C1=COC(C)C2CN3CCc4c([nH]c5ccccc45)C3CC12 (stereo not given), the T/C [10] was 96 % of control, the T/C [11] was 93 % of control and the T/C [19] was 96 % of control.
With O=C(NCCCCC(NC(=O)OCc1ccccc1)C(=O)NCCCCCCNCCCCCCNC(=O)C(CCCCNC(=O)OCc1ccccc1)NC(=O)OCc1ccccc1)OCc1ccccc1 (stereo not given) the T/C [18] was 107 % of control, the T/C [3] was 114 % of control and the T/C [4] was 114 % of control.
For C1CCNCC1, the T/C [18] was 96 % of control, the T/C [3] was 100 % of control and the T/C [4] was 100 % of control. The T/C [5] was 96 % of control.
In the case of COc1ccc(C2NC(C(=O)O)Cc3c2[nH]c2ccccc32)cc1OC (stereo not given), the T/C [4] is reported as 96 % of control, the T/C [5] is reported as 100 % of control and the T/C [8] is reported as 100 % of control. The T/C [16] was 100 % of control.
With Cc1cc(O)c2cc3c(O)c(O)ccc3cc2c1 the T/C (dose: 1.0 mg/kg/injection, schedule: Q01DX010 (ip), vehicle: saline) was 100 % of control and the T/C (dose: 2.0 mg/kg/injection, schedule: Q01DX010 (ip), vehicle: saline) was 103 % of control.
With NCCCC(=O)NCCCCCCCCCCNC(=O)CCCN the T/C [18] was 96 % of control, the T/C [3] was 93 % of control and the T/C [4] was 96 % of control. For the same compound, the T/C [5] was 103 % of control.
For O=C(NO)c1cccnc1, the T/C [1] was 113 % of control, the T/C [2] was 107 % of control and the T/C [20] was 107 % of control and 120 % of control.
For O=c1ccc2ccccc2o1, the T/C [4] was 107 % of control, the T/C [5] was 107 % of control and the T/C [8] was 107 % of control.
For OCC1OC(n2cnc3c(=S)nc[nH]c32)C(O)C1O (stereo not given), the T/C [10] was 111 % of control and the T/C [11] was 111 % of control and 122 % of control.
With Cc1n[nH]c(C)c1Br the T/C [7] was 101 % of control and the T/C [9] was 104 % of control.
With O=NN(CCCl)C(=O)NCCCl the T/C [17] was 265 % of control and 290 % of control and the T/C [18] was 150 % of control and 170 % of control.
With CC1=NN(c2ccccc2)C(=O)C1 the T/C [7] was 94 % of control and the T/C [21] was 91 % of control.
For CC(O)CCc1ccc(O)cc1 (stereo not given), the T/C (dose: 18.8 mg/kg/injection, schedule: Q01DX010 (ip), vehicle: saline) was 100 % of control, the T/C (dose: 37.5 mg/kg/injection, schedule: Q01DX010 (ip), vehicle: saline) was 92 % of control and the T/C (dose: 75.0 mg/kg/injection, schedule: Q01DX010 (ip), vehicle: saline) was 92 % of control. The T/C (dose: 150.0 mg/kg/injection, schedule: Q01DX010 (ip), vehicle: saline) was 100 % of control.
With OCC1OC(n2cnc3c(Cl)ncnc32)C(O)C1O (stereo not given) the T/C [12] was 94 % of control and 100 % of control, the T/C [13] was 100 % of control and the T/C [14] was 111 % of control. The T/C [15] was 105 % of control and 88 % of control.
For O=C(O)CCCc1ccc(N(CCCl)CCCl)cc1, the T/C (dose: 6.25 mg/kg/injection, schedule: Q01DX010 (ip), vehicle: other) was 114 % of control and the T/C (dose: 25.0 mg/kg/injection, schedule: Q01DX010 (ip), vehicle: other) was 103 % of control.
For O=C(NO)c1ccncc1, the T/C [9] was 101 % of control, the T/C (dose: 200.0 mg/kg/injection, schedule: Q02DX005 (ip), vehicle: water) was 106 % of control and the T/C [21] was 108 % of control. For the same compound, the T/C (dose: 300.0 mg/kg/injection, schedule: Q02DX005 (ip), vehicle: water) was 99 % of control, the T/C (dose: 335.0 mg/kg/injection, schedule: Q01DX010 (ip), vehicle: water) was 106 % of control and the T/C [2] was 106 % of control. For the same compound, the T/C (dose: 400.0 mg/kg/injection, schedule: Q02DX005 (ip), vehicle: water) was 110 % of control, the T/C (dose: 500.0 mg/kg/injection, schedule: Q01DX010 (ip), vehicle: water) was 103 % of control and the T/C [20] was 111 % of control. The T/C (dose: 600.0 mg/kg/injection, schedule: Q02DX005 (ip), vehicle: water) was 106 % of control and the T/C (dose: 800.0 mg/kg/injection, schedule: Q02DX005 (ip), vehicle: water) was 109 % of control.
For C[C@]12C[C@H](O)[C@H]3[C@@H](CCC4=CC(=O)CC[C@@]43C)[C@@H]1CC[C@@H]2C(=O)CO, the T/C (dose: 12.5 mg/kg/injection, schedule: Q01DX010 (sc), vehicle: steriod suspending solution) was 107 % of control, the T/C (dose: 25.0 mg/kg/injection, schedule: Q01DX010 (sc), vehicle: steriod suspending solution) was 107 % of control and the T/C (dose: 50.0 mg/kg/injection, schedule: Q01DX010 (sc), vehicle: steriod suspending solution) was 107 % of control. The T/C (dose: 100.0 mg/kg/injection, schedule: Q01DX010 (sc), vehicle: steriod suspending solution) was 107 % of control.
O=C(C[C@H]1CCC[C@H](CC(=O)c2ccccc2)N1)c1ccccc1 was tested, and the T/C [18] was 92 % of control, the T/C [3] was 107 % of control and the T/C [4] was 107 % of control.
For CN(C)c1ccc(Nc2c3ccccc3nc3ccccc23)cc1, the T/C (dose: 36.0 mg/kg/injection, schedule: Q01DX010 (ip), vehicle: saline) was 121 % of control and the T/C [19] was 92 % of control.
For Cc1[nH]ncc1Br, the T/C [6] was 95 % of control and the T/C [7] was 98 % of control.
For CN1C2CCC1CC(OC(=O)C(CO)c1ccccc1)C2 (stereo not given), the T/C [3] was 96 % of control and the T/C [4] was 100 % of control.
With O=C(NCCCCC(NC(=O)OCc1ccccc1)C(=O)NCCCNCCCCNCCCNC(=O)C(CCCCNC(=O)OCc1ccccc1)NC(=O)OCc1ccccc1)OCc1ccccc1 (stereo not given) the T/C (dose: 2.5 mg/kg/injection, schedule: Q01DX010 (ip), vehicle: saline) was 100 % of control, the T/C (dose: 5.0 mg/kg/injection, schedule: Q01DX010 (ip), vehicle: saline) was 100 % of control and the T/C (dose: 10.0 mg/kg/injection, schedule: Q01DX010 (ip), vehicle: saline) was 100 % of control.
CC(=O)NCCCCCCNC(C)=O was tested, and the T/C [4] was 93 % of control, the T/C [5] was 96 % of control and the T/C [8] was 96 % of control. The T/C [16] was 100 % of control.
In the case of C1CCNC1, the T/C (dose: 1.56 mg/kg/injection, schedule: Q01DX010 (ip), vehicle: saline) is reported as 113 % of control, the T/C (dose: 3.13 mg/kg/injection, schedule: Q01DX010 (ip), vehicle: saline) is reported as 103 % of control and the T/C [17] is reported as 100 % of control. The T/C [18] was 103 % of control and 96 % of control and the T/C [3] was 86 % of control.
